Measured values as given in ChEMBL document CHEMBL4431331, “Design and evaluation of 1,7-naphthyridones as novel KDM5 inhibitors” (Bioorg Med Chem Lett, 2016).
The source made the active and inactive calls. The calls are words filed in the database; no cut-off is given here.

Columns and labels:
[1] = biological target: T1, Lysine-specific demethylase 5A (Homo sapiens, UniProt P29375); assay: Inhibition of full length human KDM5A using biotinylated H2NART(KMe3)QTARKSTGGKAPRKQLA-NTPEG-biotin as substrate after 30 to 40 mins using 1 uM of 2-OG as co-substrate by TR-FRET assay
T1 sequence (P29375 whole entry): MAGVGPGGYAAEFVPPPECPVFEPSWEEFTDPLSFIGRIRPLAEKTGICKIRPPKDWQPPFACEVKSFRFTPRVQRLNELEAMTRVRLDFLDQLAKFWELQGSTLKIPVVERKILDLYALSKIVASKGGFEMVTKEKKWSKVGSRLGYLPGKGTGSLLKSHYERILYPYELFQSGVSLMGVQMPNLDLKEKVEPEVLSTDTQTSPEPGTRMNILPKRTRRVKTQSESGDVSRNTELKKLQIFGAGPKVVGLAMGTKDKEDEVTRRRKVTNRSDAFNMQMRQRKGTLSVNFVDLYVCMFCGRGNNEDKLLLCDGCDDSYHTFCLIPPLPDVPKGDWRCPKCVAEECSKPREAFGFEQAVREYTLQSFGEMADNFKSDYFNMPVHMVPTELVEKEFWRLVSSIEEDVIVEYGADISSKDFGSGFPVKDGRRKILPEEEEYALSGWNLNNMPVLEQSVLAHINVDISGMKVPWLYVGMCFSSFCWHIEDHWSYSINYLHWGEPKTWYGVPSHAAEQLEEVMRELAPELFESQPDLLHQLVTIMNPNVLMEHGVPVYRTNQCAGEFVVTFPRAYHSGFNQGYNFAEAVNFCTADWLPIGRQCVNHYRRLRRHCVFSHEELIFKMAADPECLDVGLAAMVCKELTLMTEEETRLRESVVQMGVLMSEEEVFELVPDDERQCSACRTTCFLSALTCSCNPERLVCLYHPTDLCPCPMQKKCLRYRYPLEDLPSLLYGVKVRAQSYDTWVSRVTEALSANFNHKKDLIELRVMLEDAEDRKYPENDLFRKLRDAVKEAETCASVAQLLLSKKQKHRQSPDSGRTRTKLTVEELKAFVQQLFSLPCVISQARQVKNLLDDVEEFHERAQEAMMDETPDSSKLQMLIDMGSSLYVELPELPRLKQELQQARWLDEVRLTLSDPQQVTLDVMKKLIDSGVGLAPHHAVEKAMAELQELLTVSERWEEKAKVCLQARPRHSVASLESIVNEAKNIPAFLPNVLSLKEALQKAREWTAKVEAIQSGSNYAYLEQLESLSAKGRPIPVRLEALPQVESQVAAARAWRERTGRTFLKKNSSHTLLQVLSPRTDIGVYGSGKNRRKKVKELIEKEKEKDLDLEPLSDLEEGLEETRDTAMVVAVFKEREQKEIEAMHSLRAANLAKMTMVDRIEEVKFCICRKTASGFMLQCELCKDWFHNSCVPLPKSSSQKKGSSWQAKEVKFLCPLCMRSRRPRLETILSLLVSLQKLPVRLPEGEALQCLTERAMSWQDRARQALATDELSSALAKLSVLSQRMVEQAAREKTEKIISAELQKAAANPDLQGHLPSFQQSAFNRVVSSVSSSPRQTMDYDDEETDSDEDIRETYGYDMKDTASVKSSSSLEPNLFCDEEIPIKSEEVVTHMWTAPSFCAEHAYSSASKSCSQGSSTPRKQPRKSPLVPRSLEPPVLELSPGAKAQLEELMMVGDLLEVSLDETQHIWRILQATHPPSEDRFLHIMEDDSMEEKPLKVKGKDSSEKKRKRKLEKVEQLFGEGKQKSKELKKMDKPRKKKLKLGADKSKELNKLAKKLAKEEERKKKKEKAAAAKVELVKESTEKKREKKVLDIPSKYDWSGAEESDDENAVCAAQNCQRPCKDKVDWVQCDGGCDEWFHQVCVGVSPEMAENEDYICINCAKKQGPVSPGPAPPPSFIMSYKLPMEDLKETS

[2] = Competitive inhibition of KDM5 (unknown origin) in presence of 2-OG; design: species or system Homo sapiens
[3] = Dissociation constant, pKa of the compound; assay type: physicochemical
[4] = biological target: Lysine-specific demethylase 5B (Homo sapiens, UniProt Q9UGL1); assay: Inhibition of full length human KDM5B using biotinylated H2NART(KMe3)QTARKSTGGKAPRKQLA-NTPEG-biotin as substrate after 30 to 40 mins using 2 uM of 2-OG as co-substrate by TR-FRET assay
Chain of Lysine-specific demethylase 5B (Q9UGL1 whole entry): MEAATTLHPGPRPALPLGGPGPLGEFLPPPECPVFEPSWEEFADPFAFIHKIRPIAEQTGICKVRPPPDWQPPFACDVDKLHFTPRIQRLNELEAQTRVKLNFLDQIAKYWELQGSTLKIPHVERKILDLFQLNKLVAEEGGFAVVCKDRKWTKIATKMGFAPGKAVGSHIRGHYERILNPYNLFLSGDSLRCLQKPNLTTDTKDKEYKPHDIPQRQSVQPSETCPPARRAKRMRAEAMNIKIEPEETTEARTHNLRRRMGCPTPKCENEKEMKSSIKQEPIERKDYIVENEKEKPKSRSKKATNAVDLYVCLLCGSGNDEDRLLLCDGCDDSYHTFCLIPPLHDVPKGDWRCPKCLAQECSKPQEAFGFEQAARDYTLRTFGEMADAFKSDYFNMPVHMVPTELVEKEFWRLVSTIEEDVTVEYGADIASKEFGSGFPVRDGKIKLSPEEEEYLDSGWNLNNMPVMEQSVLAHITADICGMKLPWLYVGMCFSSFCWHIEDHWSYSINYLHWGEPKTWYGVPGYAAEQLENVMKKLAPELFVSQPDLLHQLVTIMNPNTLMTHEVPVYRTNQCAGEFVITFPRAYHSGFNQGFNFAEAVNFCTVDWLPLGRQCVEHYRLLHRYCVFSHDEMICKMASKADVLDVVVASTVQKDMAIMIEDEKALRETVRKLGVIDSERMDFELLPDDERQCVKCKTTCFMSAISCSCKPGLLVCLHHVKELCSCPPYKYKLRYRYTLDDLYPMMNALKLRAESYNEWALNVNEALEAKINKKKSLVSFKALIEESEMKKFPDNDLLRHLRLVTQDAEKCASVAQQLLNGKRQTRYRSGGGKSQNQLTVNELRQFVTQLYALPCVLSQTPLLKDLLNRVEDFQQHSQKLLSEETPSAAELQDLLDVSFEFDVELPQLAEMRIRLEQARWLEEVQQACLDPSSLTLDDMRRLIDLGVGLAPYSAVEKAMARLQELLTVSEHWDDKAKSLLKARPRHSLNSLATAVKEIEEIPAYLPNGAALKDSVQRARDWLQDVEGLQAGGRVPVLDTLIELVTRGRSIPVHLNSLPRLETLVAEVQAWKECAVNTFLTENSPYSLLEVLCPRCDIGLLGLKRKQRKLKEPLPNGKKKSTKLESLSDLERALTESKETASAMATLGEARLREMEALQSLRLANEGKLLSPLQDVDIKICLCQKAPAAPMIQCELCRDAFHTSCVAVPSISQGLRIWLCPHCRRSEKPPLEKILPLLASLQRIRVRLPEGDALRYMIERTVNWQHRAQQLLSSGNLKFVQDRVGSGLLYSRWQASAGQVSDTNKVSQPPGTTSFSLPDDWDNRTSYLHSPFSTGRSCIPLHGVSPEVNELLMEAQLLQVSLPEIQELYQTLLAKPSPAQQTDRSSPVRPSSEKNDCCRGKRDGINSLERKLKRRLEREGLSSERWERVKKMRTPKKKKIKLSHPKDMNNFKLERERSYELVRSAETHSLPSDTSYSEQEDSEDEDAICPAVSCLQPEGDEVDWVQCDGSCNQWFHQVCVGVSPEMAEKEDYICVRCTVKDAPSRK

[5] = biological target: Lysine-specific demethylase 5C (Homo sapiens, UniProt P41229); assay: Inhibition of full length human KDM5C using biotinylated H2NART(KMe3)QTARKSTGGKAPRKQLA-NTPEG-biotin as substrate after 30 to 40 mins using 1 uM of 2-OG as co-substrate by TR-FRET assay
Chain of Lysine-specific demethylase 5C (P41229 whole entry): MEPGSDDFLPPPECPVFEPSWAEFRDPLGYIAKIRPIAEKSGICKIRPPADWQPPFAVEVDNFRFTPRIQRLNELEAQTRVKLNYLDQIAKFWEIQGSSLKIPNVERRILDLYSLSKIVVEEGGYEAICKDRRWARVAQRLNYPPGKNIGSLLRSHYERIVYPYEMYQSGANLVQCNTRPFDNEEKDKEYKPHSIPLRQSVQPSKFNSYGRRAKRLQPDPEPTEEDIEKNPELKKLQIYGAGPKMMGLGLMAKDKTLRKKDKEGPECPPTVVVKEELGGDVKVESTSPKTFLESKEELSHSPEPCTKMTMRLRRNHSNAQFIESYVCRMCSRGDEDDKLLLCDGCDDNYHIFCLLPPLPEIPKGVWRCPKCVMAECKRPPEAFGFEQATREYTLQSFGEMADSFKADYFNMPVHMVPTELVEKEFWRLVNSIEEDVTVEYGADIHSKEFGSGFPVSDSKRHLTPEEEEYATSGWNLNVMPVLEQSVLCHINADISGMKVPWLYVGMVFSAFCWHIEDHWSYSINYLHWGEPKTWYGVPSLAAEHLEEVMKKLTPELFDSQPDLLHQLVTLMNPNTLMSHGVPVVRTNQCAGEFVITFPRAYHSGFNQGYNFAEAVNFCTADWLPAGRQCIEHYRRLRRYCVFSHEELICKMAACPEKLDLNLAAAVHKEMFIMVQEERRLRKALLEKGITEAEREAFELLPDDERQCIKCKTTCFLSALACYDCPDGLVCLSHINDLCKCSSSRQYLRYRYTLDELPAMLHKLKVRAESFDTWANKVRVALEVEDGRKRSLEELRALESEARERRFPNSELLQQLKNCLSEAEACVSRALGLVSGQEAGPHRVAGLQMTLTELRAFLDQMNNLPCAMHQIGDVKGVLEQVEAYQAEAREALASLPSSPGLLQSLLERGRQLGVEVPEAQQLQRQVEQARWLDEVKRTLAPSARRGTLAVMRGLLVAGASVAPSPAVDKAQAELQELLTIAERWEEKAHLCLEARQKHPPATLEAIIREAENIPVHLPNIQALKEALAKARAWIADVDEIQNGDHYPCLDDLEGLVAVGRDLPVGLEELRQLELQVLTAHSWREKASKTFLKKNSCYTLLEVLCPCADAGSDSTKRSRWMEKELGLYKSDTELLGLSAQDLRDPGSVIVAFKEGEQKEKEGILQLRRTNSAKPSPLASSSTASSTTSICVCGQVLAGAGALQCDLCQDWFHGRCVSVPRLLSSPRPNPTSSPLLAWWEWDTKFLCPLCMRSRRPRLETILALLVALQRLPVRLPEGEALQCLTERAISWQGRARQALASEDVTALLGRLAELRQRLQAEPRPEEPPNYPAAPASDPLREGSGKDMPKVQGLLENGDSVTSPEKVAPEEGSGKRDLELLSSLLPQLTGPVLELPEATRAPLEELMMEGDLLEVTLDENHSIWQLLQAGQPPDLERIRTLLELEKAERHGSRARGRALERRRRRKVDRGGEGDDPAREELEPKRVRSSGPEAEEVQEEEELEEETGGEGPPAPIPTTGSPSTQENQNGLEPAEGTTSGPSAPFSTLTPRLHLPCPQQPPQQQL

[6] = biological target: T2, Lysine-specific demethylase 4C (Homo sapiens, UniProt Q9H3R0); assay: Inhibition of full length human KDM4C using biotinylated H2N-ARTKQTAR(KMe3)STGGKAPRKQLA-NTPEGBiot as substrate after 30 mins using 3 uM of 2-OG as co-substrate by TR-FRET assay
T2 sequence (Q9H3R0 whole entry): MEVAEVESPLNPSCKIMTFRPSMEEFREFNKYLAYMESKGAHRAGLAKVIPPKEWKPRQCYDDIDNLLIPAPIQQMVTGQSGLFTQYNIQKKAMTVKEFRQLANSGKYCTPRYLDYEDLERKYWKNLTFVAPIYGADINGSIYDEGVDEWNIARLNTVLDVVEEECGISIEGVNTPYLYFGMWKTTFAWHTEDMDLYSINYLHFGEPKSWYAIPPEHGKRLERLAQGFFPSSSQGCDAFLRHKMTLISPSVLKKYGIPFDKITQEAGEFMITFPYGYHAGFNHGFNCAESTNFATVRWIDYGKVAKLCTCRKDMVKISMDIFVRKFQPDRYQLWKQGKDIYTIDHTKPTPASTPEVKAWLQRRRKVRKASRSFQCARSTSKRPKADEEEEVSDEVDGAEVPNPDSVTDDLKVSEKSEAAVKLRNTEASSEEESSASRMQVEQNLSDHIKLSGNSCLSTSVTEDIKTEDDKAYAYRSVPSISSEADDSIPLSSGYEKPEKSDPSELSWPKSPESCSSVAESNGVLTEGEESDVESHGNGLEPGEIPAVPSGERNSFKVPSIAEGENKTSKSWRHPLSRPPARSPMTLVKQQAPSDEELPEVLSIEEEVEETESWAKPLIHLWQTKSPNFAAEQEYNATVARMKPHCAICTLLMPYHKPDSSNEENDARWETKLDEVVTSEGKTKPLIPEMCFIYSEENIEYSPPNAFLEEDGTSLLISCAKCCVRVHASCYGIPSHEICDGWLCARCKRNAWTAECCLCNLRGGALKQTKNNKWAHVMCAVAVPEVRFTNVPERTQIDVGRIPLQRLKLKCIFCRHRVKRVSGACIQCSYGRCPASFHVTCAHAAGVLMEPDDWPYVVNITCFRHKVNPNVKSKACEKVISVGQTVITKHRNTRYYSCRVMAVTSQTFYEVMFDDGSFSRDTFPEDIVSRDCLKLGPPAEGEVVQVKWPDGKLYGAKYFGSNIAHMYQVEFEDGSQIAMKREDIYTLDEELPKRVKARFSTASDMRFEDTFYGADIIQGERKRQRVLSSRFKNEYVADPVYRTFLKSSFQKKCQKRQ

[7] = biological target: T3, Lysine-specific demethylase 2B (Homo sapiens, UniProt Q8NHM5); assay: Inhibition of full length human KDM2B using biotinylated H2N-RKSAPATGGV(KMe2)KPHRYRPGTV-NTPEGBiot as substrate after 2 hrs using 0.3 uM of 2-OG as co-substrate by TR-FRET assay
T3 sequence (Q8NHM5 whole entry): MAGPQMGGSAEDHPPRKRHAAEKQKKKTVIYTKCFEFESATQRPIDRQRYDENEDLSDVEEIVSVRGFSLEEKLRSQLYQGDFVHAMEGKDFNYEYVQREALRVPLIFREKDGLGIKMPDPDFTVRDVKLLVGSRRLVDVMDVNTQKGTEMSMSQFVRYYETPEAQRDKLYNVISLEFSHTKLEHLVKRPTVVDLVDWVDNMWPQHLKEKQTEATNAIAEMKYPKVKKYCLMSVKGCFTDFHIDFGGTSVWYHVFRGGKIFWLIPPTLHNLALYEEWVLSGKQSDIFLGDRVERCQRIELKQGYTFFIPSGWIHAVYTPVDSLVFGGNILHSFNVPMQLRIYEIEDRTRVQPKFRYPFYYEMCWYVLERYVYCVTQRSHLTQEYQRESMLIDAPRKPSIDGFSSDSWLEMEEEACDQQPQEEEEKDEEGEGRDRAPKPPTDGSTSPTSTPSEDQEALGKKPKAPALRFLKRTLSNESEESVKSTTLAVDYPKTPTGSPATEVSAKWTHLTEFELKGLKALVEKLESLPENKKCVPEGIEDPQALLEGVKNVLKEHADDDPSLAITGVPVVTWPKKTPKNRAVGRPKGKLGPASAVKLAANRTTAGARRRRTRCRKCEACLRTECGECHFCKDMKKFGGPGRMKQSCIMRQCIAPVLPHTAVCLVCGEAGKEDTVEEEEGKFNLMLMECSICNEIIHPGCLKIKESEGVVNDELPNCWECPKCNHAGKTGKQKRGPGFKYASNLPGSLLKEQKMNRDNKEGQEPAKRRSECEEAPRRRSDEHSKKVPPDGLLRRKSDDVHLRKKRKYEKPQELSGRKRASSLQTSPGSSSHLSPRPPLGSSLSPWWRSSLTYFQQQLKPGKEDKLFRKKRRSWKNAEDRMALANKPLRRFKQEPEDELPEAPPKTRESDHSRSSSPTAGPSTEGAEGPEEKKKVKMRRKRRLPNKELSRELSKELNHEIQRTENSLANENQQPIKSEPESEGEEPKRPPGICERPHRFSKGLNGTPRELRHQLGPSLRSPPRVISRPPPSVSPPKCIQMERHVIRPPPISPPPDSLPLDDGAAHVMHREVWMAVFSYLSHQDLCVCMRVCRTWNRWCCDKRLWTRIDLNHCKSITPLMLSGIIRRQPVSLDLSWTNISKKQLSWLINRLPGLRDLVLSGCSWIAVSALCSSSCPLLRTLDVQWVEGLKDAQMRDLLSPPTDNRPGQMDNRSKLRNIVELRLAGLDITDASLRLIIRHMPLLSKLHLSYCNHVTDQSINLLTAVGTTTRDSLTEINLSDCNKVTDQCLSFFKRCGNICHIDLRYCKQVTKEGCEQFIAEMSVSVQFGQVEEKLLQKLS

[8] = biological target: T1, Lysine-specific demethylase 5A; assay: Inhibition of KDM5A in human PC9 cells assessed as increase in H3K4me3 levels upto 30 uM after 4 days by HTRF assay; assay type: cell-based
[9] = species on record: Homo sapiens; assay: Selectivity ratio of IC50 for full length human KDM4C to IC50 for full length human KDM5A
[10] = species on record: Homo sapiens; assay: Selectivity ratio of IC50 for full length human KDM2B to IC50 for full length human KDM5A
[11] = biological target: T1, Lysine-specific demethylase 5A; assay: Ratio of IC50 for full length human KDM5A using biotinylated H2NART(KMe3)QTARKSTGGKAPRKQLA-NTPEG-biotin as substrate and 10 uM of 2-OG as co-substrate to IC50 for full length human KDM5A using biotinylated H2NART(KMe3)QTARKSTGGKAPRKQLA-NTPEG-biotin as substrate and 1 uM of 2-OG as co-substrate
[12] = Apparent permeability from apical to basolateral side in MDCK cells; assay type: ADME, cell-based, Canis lupus familiaris; conditions: dog
[13] = Plasma protein binding in human; assay type: ADME, cell-free; conditions: read-out: PPB (converted)
[14] = Hepatic clearance in human liver microsomes; assay type: ADME, Microsome
[15] = biological target: T1, Lysine-specific demethylase 5A; assay: Inhibition of full length human KDM5A using biotinylated H2NART(KMe3)QTARKSTGGKAPRKQLA-NTPEG-biotin as substrate after 30 to 40 mins using 20 uM of 2-OG as co-substrate by TR-FRET assay

## O=c1cc(O)c2ccncc2[nH]1
[1]
  IC50: 6700 nM

## CNC(=O)c1c(O)c2ccncc2[nH]c1=O
[1]
  IC50: 70 nM

## O=C(NCc1ccccc1)c1c(O)c2ccncc2[nH]c1=O
[1]
  IC50: > 25000 nM

## CC(C)NC(=O)c1c(O)c2ccncc2[nH]c1=O
[1]
  IC50: 400 nM

## CC(C)c1c(-c2ccccc2)[nH]c2c(C#N)cnn2c1=O
[2]
  IC50: 10 nM

## N#Cc1c(O)c2ccncc2[nH]c1=O
[1]
  IC50: 25 nM
[3]
  pKa: 3.5
[4]
  IC50: 70 nM
[5]
  IC50: 170 nM
[6]
  IC50: > 25000 nM
[7]
  IC50: > 25000 nM
[8]
  inhibition: inactive

## CN(C)C(=O)c1c(O)c2ccncc2[nH]c1=O
[1]
  IC50: 5300 nM

## CCN(C)C(=O)c1c(O)c2ccncc2[nH]c1=O
[1]
  IC50: 700 nM

## N#Cc1c(O)c2ccccc2[nH]c1=O
[1]
  IC50: > 25000 nM

## O=C(c1c(O)c2ccncc2[nH]c1=O)N1CCCC1
[1]
  IC50: > 25000 nM

## O=c1[nH]c(C(F)(F)F)nc2cnccc12
[1]
  IC50: 160 nM
[3]
  pKa: 4.6
[6]
  IC50: 1900 nM
[7]
  IC50: > 25000 nM
[9]
  Ratio IC50: 12
[10]
  Ratio IC50: > 150
[11]
  Ratio IC50: 9

## CCc1c(O)c2ccncc2n(CC)c1=O
[1]
  IC50: 3800 nM

## CCOC(=O)c1c(O)nc2ccccc2c1O
[1]
  IC50: > 25000 nM

## CCNC(=O)c1c(O)c2ccncc2[nH]c1=O
[1]
  IC50: 50 nM
[3]
  pKa: 6.4
[8]
  inhibition: inactive
[12]
  Papp A→B: 15.8 ×10⁻⁶ cm/s
[13]
  fraction unbound: 0.3
[14]
  CLhep predicted: 11.5 mL/min/kg

## CCc1c(O)c2ccncc2[nH]c1=O
[1]
  IC50: 230 nM
[15]
  IC50: 2100 nM

## CCOC(=O)c1c(O)c2cccnc2[nH]c1=O
[1]
  IC50: > 25000 nM
